In article PMC9283668, “Natural and commercial antibiotic comparison with drugs modeling cell integrity cell stability of Bio-Kinetics changes under morphological topographies cells with lower toxicological characteristics for multidrug resistances problem” (Saudi Journal of Biological Sciences, 2022):

Legend:
[1] = Description: (§1) Pharmacokinetic compartment modelling was used on these novel substances, which had been derived from A. vasica and C. procera. The half-life was determined by the regions under plasma concentration, while the peak plasma concentration as well as timing acquired immediately from the dataset obtained in this investigation. Medicinal phyto-constituents were incorporated to the compartment model and an automatic calculating software tool was coupled with win-Nonlin ® Software to these bioactive chemicals.
Selected compounds were administered using a one-compartment oral dosage model, extract the one-compartment model parameters, the non-compartment model Parameters are necessary. The equations for non-compartment and one-compartment variables are given below respectively. • (1) w = (AUC, T max, T1/2) • (2) β = (ka, ke, V). • (3) β = (ke, V) • (4) CL po = V × Ke
If only oral clearance is required, CL po should be used instead of AUC. When it comes to IV dosage, however, just w = (AUC, T1/2) is required to claim the single dozes changes in (3).
Plasma concertation either orally or via an injection of selected compounds The natural antibiotic compounds by being taken into cells and either bacterial changes and it formed a tragedy to cells as expressed complete changes used in the formation of ATP in cells. The pharmacokinetic description of antibiotic compounds are shown in below equation and represented mathematically by equations (1), (2), (3), (4).(1) dSdt=rS,end+rS,ex-rS,elim (2) rS,end=f(t,S,I,G,E,F,A,KS,end) (3) rS,ex=g(t,MS) (4) rS,elim=h(t,S,I,E,KS,elim)

[2] = type: in vitro ADME
Description: as §1, with “[…].” for “vasica and C.”

Molecule | AUC, area under plasma concentration (Mean) [1] | T max (Mean) [1] | Half life (Mean) [1] | Absorption capacity (Mean) [2]
CCCCC/C=C\C/C=C\CCCCCCCC(=O)O[C@H]1CC[C@@]2(C)C(=CC[C@H]3[C@@H]4CC[C@H]([C@H](C)CC[C@@H](CC)C(C)C)[C@@]4(C)CC[C@@H]32)C1 [B-Sitosteryl linoleate] | 0.1 | – | – | –
Myristyl diglucoside | – | 0.2 | – | –
S-allylcysteine acid | 0.1 | – | 2.1 | 2.1
